Data taken from patent US6737383B1, “Herbicidal oxadiazolidines” (priority 1999, dated 2004).

What was measured:
[1] = test system: wheat; assay: Test B pre/postemergence wheat; assay type: in vivo, Triticum aestivum; settings: for Wheat plant response rating (0 to 10 scale): 0 is no effect
Method in brief: (§1)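 Herbicidal effect was estimated by eye on a ten-point control scale after plants spent twelve to sixteen days in a greenhouse following soil or foliar treatment. Foliar sprays targeted plants at one to four leaves; all doses were formulated in a non-phytotoxic solvent with surfactant.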

[2] = test system: wild oat; assay: Test B pre/postemergence wild oat; assay type: in vivo, Avena fatua; settings: for Wild oats plant response rating (0 to 10 scale): 0 is no effect
Method in brief: as §1

[3] = test system: crabgrass; assay: Test B pre/postemergence crabgrass; assay type: in vivo, Digitaria sanguinalis; settings: for Crabgrass plant response rating (0 to 10 scale): 0 is no effect
Method in brief: as §1

[4] = test system: smallflower flatsedge; assay: Test B flood test smallflower flatsedge; assay type: in vivo, Cyperus difformis
Method in brief: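 Plants were grown to the 2-leaf stage before treatment with test chemical, then held in a greenhouse for twelve to sixteen days. Injury was visually rated against untreated controls on a 0–10 scale, where 0 is no effect and 10 is complete control.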

[5] = test system: soybean; assay: Test B pre/postemergence soybean; assay type: in vivo, Glycine max; settings: for Soybean plant response rating (0 to 10 scale): 0 is no effect
Method in brief: as §1

[6] = Postemergence, Rate 62 g/ha, scale 0 to 10, 0 is no effect, 10 is complete control
[7] = Postemergence, Rate 125 g/ha, scale of 0 to 10 where 0 is no effect and 10 is complete control
[8] = Preemergence, Rate 62 g/ha, scale 0 to 10 (0 no effect, 10 complete control)
[9] = Preemergence, Rate 125 g/ha, 10 is complete control
[10] = Preemergence, Rate 250 g/ha, scale of 0 to 10 where 0 is no effect and 10 is complete control
[11] = Preemergence, Rate 500 g/ha, scale 0 (no effect) to 10 (complete control)
[12] = Rate 250 g/ha, Postemergence, scale 0 to 10, 0 is no effect, 10 is complete control
[13] = Rate 500 g/ha, Postemergence, scale 0 to 10, 0 no effect, 10 complete control
[14] = Preemergence, Rate 125 g/ha, scale 0 to 10 (0 no effect, 10 complete control)
[15] = Postemergence (flood test species), Rate 125 g/ha, scale of 0 to 10 where 0 is no effect and 10 is complete control
[16] = Rate 250 g/ha, Postemergence (flood test), scale 0 to 10, 0 is no effect, 10 is complete control
[17] = Rate 500 g/ha, listed under Postemergence (flood test species), scale 0 to 10, 0 no effect, 10 complete control
[18] = Preemergence, Rate 250 g/ha, scale 0 to 10, 0 is no effect, 10 is complete control
[19] = Preemergence, Rate 500 g/ha, scale 0 to 10 (0 no effect, 10 complete control)
[20] = Rate 62 g/ha, Postemergence, scale of 0 to 10 where 0 is no effect and 10 is complete control
[21] = Rate 500 g/ha, Postemergence, scale 0 to 10
[22] = Rate 62 g/ha, Postemergence section, flood test species, scale of 0 to 10 where 0 is no effect and 10 is complete control

Q: What does the source list for `Cc1nn(C)c(Cl)c1-n1c(=O)on(C(=O)N(c2ccc(F)cc2F)C(C)C)c1=O` [Compound 96]?
A: Wheat plant response rating [1, 6]: 0; Wheat plant response rating [1, 7]: 0; Wheat plant response rating [1, 8]: 0; Wheat plant response rating (0 to 10 scale) [1, 9]: 0; Plant response rating, Wheat [1, 10]: 0; Wheat plant response rating [1, 11]: 0; Plant response rating, Wheat [1, 12]: 0; Wheat plant response rating [1, 13]: 0; Wild oats plant response rating [2, 6]: 0; Wild oats plant response rating [2, 7]: 0; Wild oats plant response rating [2, 8]: 0; Wild oats plant response rating (0 to 10 scale) [2, 9]: 0; Plant response rating, Wild oats [2, 10]: 2; Wild oats plant response rating [2, 11]: 7; Plant response rating, Wild oats [2, 12]: 0; Wild oats plant response rating [2, 13]: 0; Crabgrass plant response rating [3, 6]: 1; Crabgrass plant response rating [3, 7]: 3; Crabgrass plant response rating ([3]; Postemergence, Rate 250 g/ha, scale 0 to 10, 0 no effect, 10 complete control): 3; Crabgrass plant response rating [3, 8]: 1; Plant response rating, Crabgrass [3, 14]: 4; Plant response rating, Crabgrass [3, 10]: 7; Crabgrass plant response rating [3, 11]: 9; Crabgrass plant response rating [3, 13]: 8; S. Flatsedge plant response rating [4, 15]: 0; S. Flatsedge plant response rating [4, 6]: 0; Plant response rating, S. Flatsedge [4, 16]: 0; S. Flatsedge plant response rating [4, 17]: 3; Soybean plant response rating [5, 6]: 1; Soybean plant response rating [5, 7]: 1; Soybean plant response rating [5, 8]: 0; Plant response rating, Soybean [5, 14]: 0; Plant response rating, Soybean [5, 10]: 0; Soybean plant response rating [5, 11]: 0; Plant response rating, Soybean [5, 12]: 1; Soybean plant response rating [5, 13]: 1

Q: Which results are given for `CC(C)N(C(=O)n1oc(=O)n(Cc2ccccc2Cl)c1=O)c1ccc(F)cc1` [Compound 140]?
A: Wheat plant response rating [1, 7]: 0; Wheat plant response rating [1, 8]: 0; Wheat plant response rating (0 to 10 scale) [1, 9]: 0; Wheat plant response rating [1, 18]: 0; Wheat plant response rating [1, 19]: 0; Wheat plant response rating [1, 20]: 0; Plant response rating, Wheat [1, 12]: 0; Wheat plant response rating [1, 21]: 0; Wild oats plant response rating [2, 7]: 0; Wild oats plant response rating [2, 8]: 0; Wild oats plant response rating (0 to 10 scale) [2, 9]: 0; Wild oats plant response rating [2, 18]: 1; Wild oats plant response rating [2, 19]: 1; Wild oats plant response rating [2, 20]: 0; Plant response rating, Wild oats [2, 12]: 0; Wild oats plant response rating [2, 21]: 1; Crabgrass plant response rating [3, 7]: 1; Crabgrass plant response rating [3, 8]: 4; Crabgrass plant response rating (0 to 10 scale) [3, 9]: 6; Crabgrass plant response rating [3, 18]: 5; Crabgrass plant response rating [3, 19]: 10; Crabgrass plant response rating [3, 20]: 0; Plant response rating, Crabgrass [3, 12]: 9; Crabgrass plant response rating [3, 21]: 9; S. Flatsedge plant response rating [4, 15]: 0; S. Flatsedge plant response rating [4, 22]: 0; Plant response rating, S. Flatsedge [4, 16]: 0; S. Flatsedge plant response rating ([4]; Rate 500 g/ha, listed under Postemergence (flood test species), scale 0 to 10): 0; Soybean plant response rating [5, 7]: 3; Soybean plant response rating [5, 8]: 0; Soybean plant response rating (0 to 10 scale) [5, 9]: 0; Soybean plant response rating [5, 18]: 0; Soybean plant response rating [5, 19]: 1; Soybean plant response rating [5, 20]: 3; Plant response rating, Soybean [5, 12]: 3; Soybean plant response rating [5, 21]: 5

Q: What does the source list for `CC(C)N(C(=O)n1oc(=O)n(-c2ccnn2C)c1=O)c1ccc(F)cc1` [Compound 124]?
A: Wheat plant response rating [1, 7]: 0; Wheat plant response rating [1, 8]: 0; Wheat plant response rating (0 to 10 scale) [1, 9]: 0; Wheat plant response rating [1, 18]: 0; Wheat plant response rating [1, 19]: 0; Wheat plant response rating [1, 20]: 0; Plant response rating, Wheat [1, 12]: 0; Wheat plant response rating [1, 13]: 0; Wild oats plant response rating [2, 7]: 0; Wild oats plant response rating [2, 8]: 0; Wild oats plant response rating (0 to 10 scale) [2, 9]: 0; Wild oats plant response rating [2, 18]: 0; Wild oats plant response rating [2, 19]: 0; Wild oats plant response rating [2, 20]: 0; Plant response rating, Wild oats [2, 12]: 0; Wild oats plant response rating [2, 13]: 0; Crabgrass plant response rating [3, 7]: 0; Crabgrass plant response rating [3, 8]: 0; Crabgrass plant response rating (0 to 10 scale) [3, 9]: 0; Crabgrass plant response rating [3, 18]: 0; Crabgrass plant response rating [3, 19]: 0; Crabgrass plant response rating [3, 20]: 0; Plant response rating, Crabgrass [3, 12]: 0; Crabgrass plant response rating [3, 13]: 0; S. Flatsedge plant response rating [4, 15]: 0; S. Flatsedge plant response rating ([4]; Pre-emergence, Rate 1000 g/ha, scale 0 to 10 (0 no effect, 10 complete control)): 0; S. Flatsedge plant response rating [4, 22]: 0; Plant response rating, S. Flatsedge [4, 16]: 0; S. Flatsedge plant response rating ([4]; Rate 250 g/ha, headed Pre-emergence (flood test species), scale 0 to 10 (0 no effect, 10 complete control)): 0; Plant response rating, S. Flatsedge ([4]; Rate 500 g/ha, headed Pre-emergence (flood test species), scale 0 to 10 (0 no effect, 10 complete control)): 0; S. Flatsedge plant response rating [4, 17]: 0; S. Flatsedge plant response rating ([4]; Rate 2000 g/ha, Pre-emergence (as headed), scale 0 to 10): 0; Soybean plant response rating [5, 7]: 3; Soybean plant response rating [5, 8]: 0; Soybean plant response rating (0 to 10 scale) [5, 9]: 0; Soybean plant response rating [5, 18]: 0; Soybean plant response rating [5, 19]: 0; Soybean plant response rating [5, 20]: 0; Plant response rating, Soybean [5, 12]: 4; Soybean plant response rating [5, 13]: 5
